The source of these data is patent publication US10093713B2, “GIP-GLP-1 dual agonist compounds and methods” (priority 2013, dated 2018).

The target of one data set is T1, human GIP R (Homo sapiens, UniProt P48546).
T1 construct: expressed in transfected cells
T1 sequence (P48546 22-466): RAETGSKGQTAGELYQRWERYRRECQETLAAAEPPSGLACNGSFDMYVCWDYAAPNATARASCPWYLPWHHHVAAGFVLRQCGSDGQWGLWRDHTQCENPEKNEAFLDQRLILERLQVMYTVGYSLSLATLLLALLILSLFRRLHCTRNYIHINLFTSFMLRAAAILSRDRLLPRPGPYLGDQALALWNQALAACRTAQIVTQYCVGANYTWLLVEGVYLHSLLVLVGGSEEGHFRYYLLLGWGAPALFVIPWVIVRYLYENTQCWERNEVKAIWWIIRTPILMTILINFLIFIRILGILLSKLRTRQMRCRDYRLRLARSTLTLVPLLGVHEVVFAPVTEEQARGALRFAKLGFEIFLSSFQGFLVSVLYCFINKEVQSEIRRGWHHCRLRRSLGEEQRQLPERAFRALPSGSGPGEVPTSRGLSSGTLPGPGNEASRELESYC
Briefly: Human GIP receptor (GIP R) activity assay, cAMP induction (AlphaScreen) in HEK293 cells. In kind it is cell-based. As to conditions: read-out: hGIP-R cAMP EC50 average value. Put shortly:
(§1)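 Stable HEK293 clones expressing human GIP R or GLP-1 R, seeded 1 day before; cells washed in Tyrode's buffer (10 mM HEPES, pH 7.4), stimulated, then lysed. cAMP measured by AlphaScreen bead competition (1 h, room temperature, dark). EC50 = concentration giving half-maximal cAMP elevation, from curves of absolute cAMP (nM) vs log concentration.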

In another data set the target is T2, human GLP-1 R (Homo sapiens, UniProt P43220).
T2 construct: expressed in transfected cells
Briefly: Human GLP-1 receptor (GLP-1 R) activity assay, cAMP induction (AlphaScreen) in HEK293 cells. In kind it is cell-based. Put shortly:
as §1
Background: Alpha assays give light when donor and acceptor beads are brought close together.

A short description of data set [1]: Pharmacokinetics of selected compounds in mice. In kind it is in vivo, C57BL/6J mice. As to conditions: male, C57BL/6J, mouse, plasma; for bioavailability: subcutaneous, AUCinf (s.c.)/AUCinf (i.v.)x100, values marked * capped to 100%. How it is done: Pharmacokinetics of Selected Compounds in Mice
C57BL/6J mice (males with a body weight of approximately 25 g) were given either a single subcutaneous (s.c.) bolus or a single intravenous (i.v.) bolus of each peptide to be tested.
Following s.c. administration of the selected compounds (50, 100 or 200 nmol/kg), blood samples were drawn at 8 (eight) timepoints up to 72 hours post-dose. Following i.v. administration of the selected compounds (50, 100 or 200 nmol/kg), blood samples were drawn at 8 (eight) timepoints up to 48 hours post-dose. Blood samples were drawn by sublingual bleeding. The dosing vehicle was a phosphate buffer containing mannitol (pH 7.5).
At each sampling time point, samples from two mice were drawn, i.e. 16 mice were included for each compound and each administration route. The mice were euthanized immediately after blood sampling by cervical dislocation. Plasma samples were analyzed after solid phase extraction (SPE) or protein precipitation followed by liquid chromatography mass spectrometry (LC-MS/MS). Mean plasma concentrations were used for calculation of the pharmacokinetic parameters using the non-compartmental approach in Phoenix WinNonlin 6.3. Plasma terminal elimination half-life (T½) was determined as […] where λz is the magnitude of the slope of the log linear regression of the log concentration versus time profile during the terminal phase. Bioavailability was determined as AUCinf (s.c.)/AUCinf (i.v.)×100, where AUCinf is the area under the plasma concentration−time curve extrapolated to infinity (AUCinf=AUClast+Clast/λz, where Clast is the last observed plasma concentration). Tmax is the post-dose time where the maximal plasma concentration was observed.

The mark [2] stands for this setting: Table 2, HEK293 cells expressing human GIP R.
Setting [3] is: Table 3, most comprehensive data.
[4] abbreviates: Table 2, HEK293 cells expressing human GLP-1 R, read-out: hGLP1-R cAMP EC50 average value.
Where [5] appears, read: iv, single i.v. bolus, read-out: T½ terminal elimination half-life, i.v. (converted).
Where [6] appears, read: Table 3, most comprehensive data, read-out: hGLP-1-R cAMP EC50 average value.
The mark [7] stands for this setting: sc, single s.c. bolus, read-out: T½ terminal elimination half-life, s.c. (converted).

Like-named read-outs stand apart in the source and are kept apart here. *1 amine or outer side, *2 acyl side, *3 side chain or, on linkers, in order; H or OH if unused. Where a SMILES comes first, the peptide text is derived from it. Side-chain parts run from the residue outwards. [ ]: non-standard residue; d: D form. The star is where a group is joined. C20 diacid = O=C(O)CCCCCCCCCCCCCCCCCCC(=O)*; C18 diacid = O=C(O)CCCCCCCCCCCCCCCCC(=O)*; γGlu = O=C(O)[C@H](CCC(=O)[*:2])N[*:1]; AEEA = NCCOCCOCC(=O)O; Aib = CC(C)(N)C(=O)O

T2 sequence (P43220 24-463): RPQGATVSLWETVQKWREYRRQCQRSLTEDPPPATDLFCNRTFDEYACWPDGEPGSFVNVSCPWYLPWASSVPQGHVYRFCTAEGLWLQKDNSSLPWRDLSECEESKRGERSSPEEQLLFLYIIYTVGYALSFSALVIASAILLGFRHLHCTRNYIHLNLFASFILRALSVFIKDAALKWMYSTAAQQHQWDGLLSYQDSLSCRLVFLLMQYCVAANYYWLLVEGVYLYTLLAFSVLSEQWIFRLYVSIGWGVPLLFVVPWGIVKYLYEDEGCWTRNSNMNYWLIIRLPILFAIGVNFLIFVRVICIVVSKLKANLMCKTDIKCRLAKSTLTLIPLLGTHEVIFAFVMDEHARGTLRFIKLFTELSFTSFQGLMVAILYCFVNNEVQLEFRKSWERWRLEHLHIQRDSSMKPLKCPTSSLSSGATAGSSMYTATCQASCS

The EC50 is the concentration giving half of the maximal effect. The half-life is the time in which the quantity being followed falls by half. As usually defined, the bioavailability is the share of a dose that reaches the circulation, judged against a reference dose that is usually intravenous. Usually Tmax stands for the time from dosing to the highest level. As for `CC[C@H](C)[C@H](NC(=O)[C@H](CO)NC(=O)[C@H](Cc1ccc(O)cc1)NC(=O)[C@H](CC(=O)O)NC(=O)[C@H](CO)NC(=O)[C@@H](NC(=O)[C@H](Cc1ccccc1)NC(=O)[C@@H](NC(=O)CNC(=O)[C@H](CCC(=O)O)NC(=O)C(C)(C)NC(=O)[C@@H](N)Cc1ccc(O)cc1)[C@@H](C)O)[C@@H](C)O)C(=O)N[C@@H](C)C(=O)N[C@@H](CC(C)C)C(=O)N[C@@H](CCC(=O)O)C(=O)N[C@@H](CCCCN)C(=O)N[C@@H](CCCCNC(=O)COCCOCCNC(=O)COCCOCCNC(=O)CC[C@H](NC(=O)CCCCCCCCCCCCCCCCC(=O)O)C(=O)O)C(=O)N[C@@H](C)C(=O)N[C@@H](CCC(N)=O)C(=O)N[C@@H](CCCNC(=N)N)C(=O)N[C@@H](C)C(=O)N[C@@H](Cc1ccccc1)C(=O)N[C@H](C(=O)N[C@@H](CCC(=O)O)C(=O)N[C@@H](Cc1c[nH]c2ccccc12)C(=O)N[C@@H](CC(C)C)C(=O)N[C@@H](CC(C)C)C(=O)N[C@@H](C)C(=O)N[C@@H](CCC(N)=O)C(=O)N[C@@H](CCCCN)C(N)=O)C(C)C` [Compound 16] (H-Y[Aib]EGTFTSDYSIALEKK([AEEA-AEEA-γGlu-C18 diacid])AQRAFVEWLLAQK-NH2), the half-maximal effective concentration (EC50) amounted to 8.1 pM on human GIP R (setting [2]), 8 pM on human GIP R (setting [3]) and 0.015 nM on human GLP-1 R (setting [4]). Further, the half-life in data set [1] (setting [5]) was 444 min. In data set [1], the bioavailability is 50%. Further, the Tmax in data set [1] (sc, single s.c. bolus) amounted to 6 h.

In the case of `CC[C@H](C)[C@H](NC(=O)[C@H](CO)NC(=O)[C@H](CC(C)C)NC(=O)[C@H](CC(=O)O)NC(=O)[C@H](CO)NC(=O)[C@@H](NC(=O)[C@H](Cc1ccccc1)NC(=O)[C@@H](NC(=O)CNC(=O)[C@H](CCC(=O)O)NC(=O)C(C)(C)NC(=O)[C@@H](N)Cc1ccc(O)cc1)[C@@H](C)O)[C@@H](C)O)C(=O)N[C@@H](C)C(=O)N[C@@H](CC(C)C)C(=O)N[C@@H](CCC(=O)O)C(=O)N[C@@H](CCCCN)C(=O)N[C@@H](CCCCNC(=O)COCCOCCNC(=O)COCCOCCNC(=O)CC[C@H](NC(=O)CCCCCCCCCCCCCCCCCCC(=O)O)C(=O)O)C(=O)N[C@@H](C)C(=O)N[C@@H](CCC(N)=O)C(=O)N[C@@H](CCCNC(=N)N)C(=O)N[C@@H](C)C(=O)N[C@@H](Cc1ccccc1)C(=O)N[C@H](C(=O)N[C@@H](CCC(=O)O)C(=O)N[C@@H](Cc1c[nH]c2ccccc12)C(=O)N[C@@H](CC(C)C)C(=O)N[C@@H](CC(C)C)C(=O)N[C@@H](C)C(=O)N[C@@H](CCC(N)=O)C(=O)N[C@@H](CCCCN)C(N)=O)C(C)C` [Compound 28] (H-Y[Aib]EGTFTSDLSIALEKK([AEEA-AEEA-γGlu-C20 diacid])AQRAFVEWLLAQK-NH2), the EC50 on human GIP R (setting [2]) was determined as 24 pM; on human GLP-1 R (setting [4]), 0.017 nM; on human GLP-1 R (setting [6]), 0.015 nM. Besides, the results for the half-life in data set [1] (setting [5]) and in data set [1] (setting [7]) were 816 min and 846 min, respectively. For the same molecule, in data set [1], the bioavailability worked out at 93%. For the same molecule, the Tmax in data set [1] (sc, single s.c. bolus) stood at 2 h.

For the molecule `CC[C@H](C)[C@H](NC(=O)[C@H](CO)NC(=O)[C@H](Cc1ccc(O)cc1)NC(=O)[C@H](CC(=O)O)NC(=O)[C@H](CO)NC(=O)[C@@H](NC(=O)[C@H](Cc1ccccc1)NC(=O)[C@@H](NC(=O)CNC(=O)[C@H](CCC(=O)O)NC(=O)[C@@H](C)NC(=O)[C@@H](N)Cc1ccc(O)cc1)[C@@H](C)O)[C@@H](C)O)C(=O)N[C@@H](Cc1ccc(O)cc1)C(=O)N[C@@H](CC(C)C)C(=O)N[C@@H](CC(=O)O)C(=O)N[C@@H](CCCCN)C(=O)N[C@@H](CCCCNC(=O)COCCOCCNC(=O)COCCOCCNC(=O)CC[C@H](NC(=O)CCCCCCCCCCCCCCCCCCC(=O)O)C(=O)O)C(=O)N[C@@H](C)C(=O)N[C@@H](CCC(N)=O)C(=O)N[C@@H](CCCNC(=N)N)C(=O)N[C@@H](C)C(=O)N[C@@H](Cc1ccccc1)C(=O)N[C@H](C(=O)N[C@@H](CCC(=O)O)C(=O)N[C@@H](Cc1c[nH]c2ccccc12)C(=O)N[C@@H](CC(C)C)C(=O)N[C@@H](CC(C)C)C(=O)N[C@@H](C)C(=O)N[C@@H](CCC(N)=O)C(=O)NCC(=O)N1CCC[C@H]1C(=O)N[C@@H](CO)C(=O)N[C@@H](CO)C(=O)NCC(=O)N[C@@H](C)C(=O)N1CCC[C@H]1C(=O)N1CCC[C@H]1C(=O)N1CCC[C@H]1C(=O)N[C@@H](CO)C(N)=O)C(C)C` [Compound 30] (H-Y[dA]EGTFTSDYSIYLDKK([AEEA-AEEA-γGlu-C20 diacid])AQRAFVEWLLAQGPSSGAPPPS-NH2), the EC50 at human GIP R (setting [2]) amounted to 15 pM; on human GIP R (setting [3]) it was 17 pM; at human GLP-1 R (setting [4]), 0.028 nM; on human GLP-1 R (setting [6]), 0.035 nM. Further, the half-life in data set [1] (setting [5]) was 1030 min; in data set [1] (setting [7]), 954 min. In data set [1], the bioavailability was determined as 83%. Moreover, the Tmax in data set [1] (sc, single s.c. bolus) stood at 8 h.

`CC[C@H](C)[C@H](NC(=O)[C@H](CO)NC(=O)[C@H](Cc1ccc(O)cc1)NC(=O)[C@H](CC(=O)O)NC(=O)[C@H](CO)NC(=O)[C@@H](NC(=O)[C@H](Cc1ccccc1)NC(=O)[C@@H](NC(=O)CNC(=O)[C@H](CCC(=O)O)NC(=O)C(C)(C)NC(=O)[C@@H](N)Cc1ccc(O)cc1)[C@@H](C)O)[C@@H](C)O)C(=O)N[C@@H](C)C(=O)N[C@@H](CC(C)C)C(=O)N[C@@H](CCC(=O)O)C(=O)N[C@@H](CCCCN)C(=O)N[C@@H](CCCCNC(=O)COCCOCCNC(=O)COCCOCCNC(=O)CC[C@H](NC(=O)CCCCCCCCCCCCCCCCCCC(=O)O)C(=O)O)C(=O)N[C@@H](C)C(=O)N[C@@H](CCC(N)=O)C(=O)N[C@@H](CCCNC(=N)N)C(=O)N[C@@H](C)C(=O)N[C@@H](Cc1ccccc1)C(=O)N[C@H](C(=O)N[C@@H](CCC(=O)O)C(=O)N[C@@H](Cc1c[nH]c2ccccc12)C(=O)N[C@@H](CC(C)C)C(=O)N[C@@H](CC(C)C)C(=O)N[C@@H](C)C(=O)N[C@@H](CCC(N)=O)C(=O)NCC(=O)N1CCC[C@H]1C(=O)N[C@@H](CO)C(=O)N[C@@H](CO)C(=O)NCC(=O)N[C@@H](C)C(=O)N1CCC[C@H]1C(=O)N1CCC[C@H]1C(=O)N1CCC[C@H]1C(=O)N[C@@H](CO)C(N)=O)C(C)C` [Compound 31] (H-Y[Aib]EGTFTSDYSIALEKK([AEEA-AEEA-γGlu-C20 diacid])AQRAFVEWLLAQGPSSGAPPPS-NH2): the EC50 was determined as 7 pM at human GIP R (setting [2]), 8 pM on human GIP R (setting [3]), 0.016 nM at human GLP-1 R (setting [4]) and 0.017 nM at human GLP-1 R (setting [6]). In addition, the half-life in data set [1] (setting [5]) was 702 min; in data set [1] (setting [7]), 906 min. The molecule further yielded a bioavailability in data set [1] of 88%. Further, the Tmax in data set [1] (sc, single s.c. bolus) was 8 h.
